Assay results taken from the supplement of paper PMC10307832.

Compound: C/C(=N\NC(=S)N1CCC1)/C2=CC=CC=N2 + COc1cc2c(Oc3ccc(NC(=O)C4(C(=O)Nc5ccc(F)cc5)CC4)cc3F)ccnc2cc1OCCCN1CCOCC1 [Foretinib] (partner 0.25 µM)
Experiment: relative viability (nuclei count vs DMSO), 5 days (fraction); higher = more cells survive
Method in brief: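 A single step with final 0.05% Triton X-100, 1% formaldehyde and 1 ug/ml Hoechst fixed the cells and stained nuclei 5 days after treatment. Lung cancer cell lines in 1536-well plates had been treated by pin tool the day after seeding with one drug alone or a fixed anchor-drug dose plus five library-drug doses (not always all listed) in √10 steps, and nuclei were counted on 4× images. Relative viability is the ratio of nuclei in treated wells to nuclei in vehicle wells, taken as the median of duplicate plates.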

| Cell Line | relative viability (first compound 0.05 µM) | relative viability (first compound 0.1581 µM) | relative viability (first compound 0.5 µM) | relative viability (first compound 1.581 µM) | relative viability (first compound 5 µM) |
| --- | --- | --- | --- | --- | --- |
| LCLC-97TM1 | 0.511 | 0.752 | 0.193 | 0.12 | 0.155 |
| HARA | 0.207 | 0.307 | 0.09 | 0.0777 | 0.0635 |
| HCC-78 | 0.488 | 0.451 | 0.367 | 0.237 | 0.235 |
| NCI-H1666 | 0.439 | 0.365 | 0.345 | 0.348 | 0.331 |
| NCI-H2347 | 0.321 | 0.391 | 0.312 | 0.31 | 0.28 |
| NCI-H838 | 0.259 | 0.255 | 0.216 | 0.217 | 0.18 |
| NCI-H2023 | 0.0821 | 0.0789 | 0.0763 | 0.0636 | 0.077 |
| 201T | 0.213 | 0.209 | 0.19 | 0.181 | 0.177 |
| NCI-H1915 | 0.366 | 0.675 | 0.216 | 0.192 | 0.173 |
| NCI-H2009 | 0.143 | 0.183 | 0.186 | 0.213 | 0.184 |
| BEN | 0.17 | 0.204 | 0.175 | 0.171 | 0.205 |
| PC-14 | 0.141 | 0.113 | 0.129 | 0.0971 | 0.0805 |
| SK-MES-1 | 0.201 | 0.257 | 0.223 | 0.166 | 0.238 |
| NCI-H727 | 0.225 | 0.231 | 0.227 | 0.227 | 0.22 |
| NCI-H1355 | 0.282 | 0.378 | 0.22 | 0.197 | 0.162 |
| NCI-H1975 | 0.137 | 0.143 | 0.129 | 0.124 | 0.124 |
| LK-2 | 0.134 | 0.183 | 0.202 | 0.133 | 0.146 |
| NCI-H661 | 0.294 | 0.307 | 0.244 | 0.264 | 0.24 |
| HCC-366 | 0.127 | 0.346 | 0.0579 | 0.0562 | 0.0285 |
| HOP-62 | 0.21 | 0.243 | 0.114 | 0.116 | 0.112 |
| NCI-H1944 | 0.624 | 0.38 | 0.181 | 0.143 | 0.166 |
| SW 1573 | 0.146 | 0.155 | 0.128 | 0.142 | 0.0856 |
| LU99A | 0.276 | 0.189 | 0.181 | 0.186 | 0.189 |
| NCI-H647 | 0.128 | 0.0812 | 0.172 | 0.132 | 0.105 |
| A-427 | 0.146 | 0.185 | 0.172 | 0.122 | 0.124 |

| Cell Line | relative viability (first compound 0.05 µM) | relative viability (first compound 0.1581 µM) | relative viability (first compound 0.5 µM) | relative viability (first compound 1.581 µM) | relative viability (first compound 5 µM) |
| --- | --- | --- | --- | --- | --- |
| COR-L 105 | 0.33 | 0.312 | 0.382 | 0.233 | 0.268 |
| NCI-H441 | 0.314 | 0.236 | 0.238 | 0.174 | 0.167 |
| NCI-H2126 | 0.223 | 0.167 | 0.167 | 0.213 | 0.201 |
| EBC-1 | 0.0973 | 0.107 | 0.131 | 0.0785 | 0.0979 |
| NCI-H460 | 0.1 | 0.06 | 0.0602 | 0.0533 | 0.0171 |
| SK-LU-1 | 0.214 | 0.19 | 0.221 | 0.149 | 0.172 |
| NCI-H322M | 0.282 | 0.32 | 0.31 | 0.295 | 0.336 |
| EKVX | 0.0957 | 0.192 | 0.118 | 0.104 | 0.984 |
| NCI-H1734 | 0.166 | 0.162 | 0.203 | 0.129 | 0.102 |
| SW 900 | 0.117 | 0.114 | 0.0636 | 0.068 | 0.15 |
| ABC-1 | 0.13 | 0.243 | 0.197 | 0.207 | 0.208 |
| NCI-H520 | 0.153 | 0.162 | 0.159 | 0.17 | 0.184 |
| EPLC-272H | 0.0785 | 0.069 | 0.1 | 0.0473 | 0.0779 |
| UMC-11 | 0.249 | 0.212 | 0.223 | 0.183 | 0.185 |
| NCI-H1993 | 0.542 | 0.516 | 0.567 | 0.631 | 0.526 |
| NCI-H596 | 0.461 | 0.725 | 0.208 | 0.199 | 0.272 |
| NCI-H1793 | 0.229 | 0.382 | 0.157 | 0.143 | 0.188 |
| NCI-H1563 | 0.543 | 0.63 | 0.576 | 0.529 | 0.581 |
| NCI-H1395 | 0.381 | 0.368 | 0.369 | 0.351 | 0.349 |
| NCI-H1299 | 0.107 | 0.133 | 0.191 | 0.187 | 0.117 |
| HCC-827 | 0.538 | 0.583 | 0.239 | 0.223 | 0.17 |
| ChaGo-K-1 | 0.217 | 0.24 | 0.211 | 0.176 | 0.171 |
| NCI-H2228 | 0.227 | 0.129 | 0.145 |  | 0.113 |
| NCI-H2170 | 0.871 | 0.341 | 0.312 | 0.199 | 0.203 |
| EMC-BAC-2 | 0.209 | 0.261 | 0.246 | 0.183 | 0.237 |

| Cell Line | relative viability (first compound 0.05 µM) | relative viability (first compound 0.1581 µM) | relative viability (first compound 0.5 µM) | relative viability (first compound 1.581 µM) | relative viability (first compound 5 µM) |
| --- | --- | --- | --- | --- | --- |
| A549 | 0.0523 | 0.0338 | 0.0289 | 0.0404 | 0.0168 |
| NCI-H23 | 0.226 | 0.262 | 0.196 | 0.181 | 0.209 |
| RERF-LC-KJ | 0.292 | 0.261 | 0.297 | 0.28 | 0.259 |
| NCI-H358 | 0.0918 | 0.107 | 0.0747 | 0.0879 | 0.107 |
| LC-2-ad | 0.225 | 0.309 | 0.267 | 0.227 | 0.235 |
| HCC-15 | 0.131 | 0.0633 | 0.115 | 0.0865 | 0.0901 |
| NCI-H2405 | 0.263 | 0.313 | 0.31 | 0.251 | 0.264 |
| LXF-289 | 0.422 | 0.31 | 0.294 | 0.311 | 0.121 |
| CAL-12T | 0.184 | 0.21 | 0.146 | 0.161 | 0.138 |
| COR-L23 | 0.147 | 0.132 | 0.14 | 0.0938 | 0.0923 |
| NCI-H1755 | 0.518 | 0.35 | 0.283 | 0.268 | 0.258 |
| NCI-H1437 | 0.242 | 0.261 | 0.229 | 0.192 | 0.162 |
| NCI-H2085 | 0.322 | 0.373 | 0.296 | 0.269 | 0.253 |
| IA-LM | 0.0694 | 0.0465 | 0.0654 | 0.0441 | 0.0339 |
| H3255 | 0.241 | 0.245 | 0.241 | 0.242 | 0.29 |
| NCI-H650 | 0.222 | 0.238 | 0.234 | 0.242 | 0.194 |
| LCLC-103H | 0.176 | 0.311 | 0.221 | 0.133 | 0.167 |
| LOU-NH91 | 0.519 | 0.447 | 0.507 | 0.469 | 0.375 |
| NCI-H1650 | 0.185 | 0.225 | 0.175 | 0.205 | 0.215 |
| NCI-H3122 | 0.101 | 0.0817 | 0.0973 | 0.149 | 0.158 |
| PC-3 [JPC-3] | 0.518 | 0.525 | 0.349 | 0.259 | 0.242 |
| Calu-6 | 0.0699 | 0.0625 | 0.0749 | 0.0997 | 0.0865 |
| NCI-H1651 | 0.136 | 0.142 | 0.127 | 0.0965 | 0.107 |
| NCI-H2087 | 0.185 | 0.178 | 0.193 | 0.15 | 0.121 |
